Series [1] in a line: Plasma PK of comparative compound without sulfur moiety in male CD1 mice. The following applies: Mesylate Salt. The series is classed as in vivo, mouse. As for the experimental part: Formulation: 10% DMSO, 90% Saline
Dosing: 10 mg/kg P.O. and 5 mg/kg I.V.

Series [2] addresses T1, PI3K p110β (Homo sapiens, UniProt P42338).
T1 construct: assay run at Proqinase GmbH
In words: IC50 determination, HTRF biochemical assay (Reaction Biology Corp.). An excerpt:
(§1) Biochemical activity against class I PI3K isoforms was confirmed by either Ki determination using the non-radiometric ADP-Glo™ assay (Promega, Madison, Wis., USA) at Proqinase GmbH, or IC50 determination using the HTRF biochemical assay at Reaction Biology Corp.

The target in series [3] is T2, PI3K p110δ (Homo sapiens, UniProt O00329).
T2 construct: assay run at Proqinase GmbH
T2 sequence (O00329 whole entry): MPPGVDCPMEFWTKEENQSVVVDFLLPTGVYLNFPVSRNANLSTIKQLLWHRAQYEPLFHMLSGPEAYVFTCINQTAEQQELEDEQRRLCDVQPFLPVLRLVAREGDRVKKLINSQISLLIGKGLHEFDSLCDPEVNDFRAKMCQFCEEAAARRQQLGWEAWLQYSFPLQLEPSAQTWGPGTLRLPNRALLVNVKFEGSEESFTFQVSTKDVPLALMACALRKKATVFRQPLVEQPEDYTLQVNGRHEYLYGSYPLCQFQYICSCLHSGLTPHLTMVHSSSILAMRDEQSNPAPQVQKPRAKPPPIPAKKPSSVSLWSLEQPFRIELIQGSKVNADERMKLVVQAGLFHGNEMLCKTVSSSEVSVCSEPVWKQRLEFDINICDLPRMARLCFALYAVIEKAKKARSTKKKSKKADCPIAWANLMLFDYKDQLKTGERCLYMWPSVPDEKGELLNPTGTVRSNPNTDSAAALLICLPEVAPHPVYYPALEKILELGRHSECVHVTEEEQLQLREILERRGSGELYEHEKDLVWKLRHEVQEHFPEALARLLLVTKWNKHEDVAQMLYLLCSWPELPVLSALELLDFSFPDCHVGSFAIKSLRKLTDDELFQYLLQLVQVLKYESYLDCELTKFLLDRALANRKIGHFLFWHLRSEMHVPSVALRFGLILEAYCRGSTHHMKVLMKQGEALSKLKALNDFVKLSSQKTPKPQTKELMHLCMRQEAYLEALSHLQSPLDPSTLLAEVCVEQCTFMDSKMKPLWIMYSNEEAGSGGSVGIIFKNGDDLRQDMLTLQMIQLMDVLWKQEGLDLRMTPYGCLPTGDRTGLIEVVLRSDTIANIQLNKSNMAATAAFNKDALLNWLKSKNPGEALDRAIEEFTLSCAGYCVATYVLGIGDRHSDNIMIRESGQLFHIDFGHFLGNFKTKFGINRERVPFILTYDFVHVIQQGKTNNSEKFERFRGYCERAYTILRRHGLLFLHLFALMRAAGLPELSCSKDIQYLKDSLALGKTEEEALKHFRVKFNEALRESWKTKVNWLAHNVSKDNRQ
T2 sequence (P27986 whole entry partner): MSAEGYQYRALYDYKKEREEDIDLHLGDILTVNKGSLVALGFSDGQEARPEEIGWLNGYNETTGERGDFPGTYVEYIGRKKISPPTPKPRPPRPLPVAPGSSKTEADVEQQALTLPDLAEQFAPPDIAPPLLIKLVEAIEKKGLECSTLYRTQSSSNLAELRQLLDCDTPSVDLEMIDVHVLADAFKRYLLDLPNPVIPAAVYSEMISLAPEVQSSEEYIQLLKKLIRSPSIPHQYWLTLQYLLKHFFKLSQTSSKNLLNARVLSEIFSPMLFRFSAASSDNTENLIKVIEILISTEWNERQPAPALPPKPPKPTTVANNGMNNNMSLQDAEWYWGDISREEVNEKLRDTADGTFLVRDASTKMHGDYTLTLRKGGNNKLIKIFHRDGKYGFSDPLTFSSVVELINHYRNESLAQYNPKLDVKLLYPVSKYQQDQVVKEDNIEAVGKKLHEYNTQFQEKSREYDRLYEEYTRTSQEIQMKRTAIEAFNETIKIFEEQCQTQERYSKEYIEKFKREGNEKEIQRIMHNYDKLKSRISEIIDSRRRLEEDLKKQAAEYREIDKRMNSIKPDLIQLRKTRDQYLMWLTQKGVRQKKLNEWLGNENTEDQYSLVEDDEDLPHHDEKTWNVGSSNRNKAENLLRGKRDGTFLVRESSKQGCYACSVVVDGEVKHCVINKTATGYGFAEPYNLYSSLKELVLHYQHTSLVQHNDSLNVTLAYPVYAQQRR
Described as above.
Excerpt: as §1

Series [4] addresses T3, PI3K p110α (Homo sapiens, UniProt P42336).
T3 construct: assay run at Proqinase GmbH
The description is as above.
Excerpt: as §1

Series [5] concerns the target T4, PI3K p110γ (Homo sapiens, UniProt P48736).
T4 construct: assay run at Proqinase GmbH
Described as above.
Excerpt: as §1

Where [6] appears, read: IV, 5 mg/kg, male CD1 mouse plasma.

The structures appear in SMILES notation.

T4 sequence (P48736 whole entry): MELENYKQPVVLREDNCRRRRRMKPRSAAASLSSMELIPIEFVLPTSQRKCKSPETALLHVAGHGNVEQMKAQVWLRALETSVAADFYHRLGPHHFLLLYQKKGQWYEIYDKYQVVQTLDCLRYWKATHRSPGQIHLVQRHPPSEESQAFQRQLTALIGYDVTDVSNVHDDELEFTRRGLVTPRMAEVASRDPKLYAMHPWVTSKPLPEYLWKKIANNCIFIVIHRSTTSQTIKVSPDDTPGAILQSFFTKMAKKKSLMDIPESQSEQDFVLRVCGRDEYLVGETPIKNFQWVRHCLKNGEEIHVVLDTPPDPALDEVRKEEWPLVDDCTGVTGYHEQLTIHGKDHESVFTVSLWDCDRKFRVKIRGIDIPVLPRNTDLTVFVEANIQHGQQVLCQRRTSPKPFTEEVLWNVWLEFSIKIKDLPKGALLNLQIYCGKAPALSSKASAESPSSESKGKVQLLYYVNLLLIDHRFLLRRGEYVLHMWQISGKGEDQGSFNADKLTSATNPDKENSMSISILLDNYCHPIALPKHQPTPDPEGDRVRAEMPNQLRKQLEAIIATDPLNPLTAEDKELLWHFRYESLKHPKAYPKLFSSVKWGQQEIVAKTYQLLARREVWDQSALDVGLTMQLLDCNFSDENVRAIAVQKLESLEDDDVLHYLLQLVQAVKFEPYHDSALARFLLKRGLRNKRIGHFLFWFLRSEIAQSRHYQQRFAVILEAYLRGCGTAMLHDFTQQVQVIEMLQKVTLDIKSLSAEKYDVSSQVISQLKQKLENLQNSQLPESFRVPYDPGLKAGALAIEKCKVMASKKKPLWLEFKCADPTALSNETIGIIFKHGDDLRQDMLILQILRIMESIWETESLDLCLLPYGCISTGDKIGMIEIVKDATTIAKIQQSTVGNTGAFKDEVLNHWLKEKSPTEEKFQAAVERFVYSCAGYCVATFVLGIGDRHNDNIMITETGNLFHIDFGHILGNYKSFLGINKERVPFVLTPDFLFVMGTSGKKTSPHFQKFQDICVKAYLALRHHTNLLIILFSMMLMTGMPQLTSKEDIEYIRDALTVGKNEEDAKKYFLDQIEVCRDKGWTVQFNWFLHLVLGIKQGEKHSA
T1 sequence (P42338 whole entry): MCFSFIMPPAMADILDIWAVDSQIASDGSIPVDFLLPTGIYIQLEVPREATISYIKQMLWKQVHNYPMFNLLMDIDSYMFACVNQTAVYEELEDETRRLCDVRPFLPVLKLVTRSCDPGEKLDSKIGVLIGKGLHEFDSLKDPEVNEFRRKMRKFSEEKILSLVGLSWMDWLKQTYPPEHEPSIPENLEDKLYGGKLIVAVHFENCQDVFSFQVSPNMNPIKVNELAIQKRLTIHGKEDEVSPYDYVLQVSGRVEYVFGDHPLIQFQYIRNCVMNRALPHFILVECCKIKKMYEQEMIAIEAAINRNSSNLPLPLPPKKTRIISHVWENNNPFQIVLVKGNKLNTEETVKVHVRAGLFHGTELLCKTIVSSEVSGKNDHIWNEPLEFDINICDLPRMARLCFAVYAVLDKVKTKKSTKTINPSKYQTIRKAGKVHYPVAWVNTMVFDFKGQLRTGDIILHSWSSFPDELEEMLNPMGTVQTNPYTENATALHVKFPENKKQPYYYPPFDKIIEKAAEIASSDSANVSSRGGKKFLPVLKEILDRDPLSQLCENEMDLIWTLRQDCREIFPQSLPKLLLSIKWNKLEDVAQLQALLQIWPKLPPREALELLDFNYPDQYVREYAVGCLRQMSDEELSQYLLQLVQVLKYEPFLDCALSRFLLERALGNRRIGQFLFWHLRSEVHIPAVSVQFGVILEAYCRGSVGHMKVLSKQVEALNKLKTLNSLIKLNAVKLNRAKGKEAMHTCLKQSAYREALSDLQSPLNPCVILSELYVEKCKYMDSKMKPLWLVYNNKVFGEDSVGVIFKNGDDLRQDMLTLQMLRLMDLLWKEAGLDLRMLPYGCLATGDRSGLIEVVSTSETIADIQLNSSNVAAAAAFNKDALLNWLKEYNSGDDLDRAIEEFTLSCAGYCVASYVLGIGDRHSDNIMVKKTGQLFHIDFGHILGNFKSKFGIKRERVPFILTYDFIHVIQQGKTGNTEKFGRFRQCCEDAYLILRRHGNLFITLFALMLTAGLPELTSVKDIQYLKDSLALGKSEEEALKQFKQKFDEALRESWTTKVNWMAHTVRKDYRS
T1 sequence (P27986 whole entry partner): as the sequence (P27986 whole entry partner) above
T3 sequence (P42336 whole entry): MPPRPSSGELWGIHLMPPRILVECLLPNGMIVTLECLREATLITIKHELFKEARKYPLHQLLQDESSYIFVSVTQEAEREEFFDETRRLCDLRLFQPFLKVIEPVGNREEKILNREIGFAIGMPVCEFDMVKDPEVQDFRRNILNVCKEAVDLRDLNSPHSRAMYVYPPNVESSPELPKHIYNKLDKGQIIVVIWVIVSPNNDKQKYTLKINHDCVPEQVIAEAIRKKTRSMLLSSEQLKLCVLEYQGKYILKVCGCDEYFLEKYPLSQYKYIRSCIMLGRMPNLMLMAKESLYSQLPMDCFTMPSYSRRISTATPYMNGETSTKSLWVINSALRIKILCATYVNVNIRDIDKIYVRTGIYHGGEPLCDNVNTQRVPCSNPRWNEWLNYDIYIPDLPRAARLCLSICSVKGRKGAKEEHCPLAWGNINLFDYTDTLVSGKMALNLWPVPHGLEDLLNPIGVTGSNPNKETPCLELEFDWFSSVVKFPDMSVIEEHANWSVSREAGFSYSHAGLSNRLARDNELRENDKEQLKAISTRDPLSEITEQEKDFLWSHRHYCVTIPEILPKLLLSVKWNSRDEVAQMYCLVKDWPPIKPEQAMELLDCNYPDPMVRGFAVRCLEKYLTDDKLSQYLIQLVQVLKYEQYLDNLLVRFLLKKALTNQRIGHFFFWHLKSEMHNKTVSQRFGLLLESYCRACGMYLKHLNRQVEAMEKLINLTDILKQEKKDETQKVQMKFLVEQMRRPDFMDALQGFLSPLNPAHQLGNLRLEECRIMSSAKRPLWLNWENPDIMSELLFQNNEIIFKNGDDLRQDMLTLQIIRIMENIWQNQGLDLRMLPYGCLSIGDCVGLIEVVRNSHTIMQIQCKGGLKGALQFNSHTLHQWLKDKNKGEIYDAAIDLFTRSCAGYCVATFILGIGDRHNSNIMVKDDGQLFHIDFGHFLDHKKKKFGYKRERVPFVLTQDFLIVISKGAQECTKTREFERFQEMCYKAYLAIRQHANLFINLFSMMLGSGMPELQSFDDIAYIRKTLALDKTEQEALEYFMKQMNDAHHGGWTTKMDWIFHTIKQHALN
T3 sequence (P27986 whole entry partner): as the sequence (P27986 whole entry partner) above

By clearance is commonly meant a measure of how efficiently the substance is removed, as volume per time. As a reminder, the bioavailability is the share of a dose that reaches the circulation, judged against a reference dose that is usually intravenous. Regarding `c1cc(-c2nc(N3CCOCC3)c3oc4ncc(CN5CCCCC5)cc4c3n2)c2cc[nH]c2c1`, in series [1] (setting [6]), the AUClast turned out to be 1245 ng·mL·h and the clearance came to 66.1 mL/min/kg. In addition, the bioavailability in series [1] (plasma, PO 10 mg/kg vs IV 5 mg/kg, male CD1 mouse) amounted to 27.8%.
The IC50 is the point on the concentration scale where inhibition reaches its midpoint. As to `c1cc(-c2nc(N3CCOCC3)c3oc4ncc(CN5CCSC5)cc4c3n2)c2cc[nH]c2c1` [Example AC, 4-(1H-Indol-4-yl)-6-(morpholin-4-yl)-12-[(1,3-thiazolidin-3-yl)methyl]-8-oxa-3,5,10-triazatricyclo[7.4.0.0^2^,7]trideca-1(13),2(7),3,5,9,11-hexaene], the IC50 in series [2], in series [3], in series [4] and in series [5] was not above 0.5 µM in each case.
As to `CS(=O)(=O)CCNCc1cnc2oc3c(N4CCOCC4)nc(-c4cccc5[nH]ccc45)nc3c2c1` [Example AD, {[4-(1H-Indol-4-yl)-6-(morpholin-4-yl)-8-oxa-3,5,10-triazatricyclo[7.4.0.0^2^,7]trideca-1(13),2(7),3,5,9,11-hexaen-12-yl]methyl}(2-methanesulfonylethyl)amine], the IC50 in series [2], in series [3], in series [4] and in series [5] was not above 0.5 µM each time.
For the compound `CCS(=O)(=O)CCN(C)Cc1cnc2oc3c(N4CCOCC4)nc(-c4cccc5[nH]ccc45)nc3c2c1` [Example AE], the IC50 in series [2], in series [3], in series [4] and in series [5] was not above 0.5 µM in each case.
`c1cc(-c2nc(N3CCOCC3)c3oc4ncc(CN5CCSCC5)cc4c3n2)c2cc[nH]c2c1` [Example AF, 4-(1H-indol-4-yl)-6-(morpholin-4-yl)-12-[(thiomorpholin-4-yl)methyl]-8-oxa-3,5,10-triazatricyclo[7.4.0.0^2^,7]trideca-1(13),2(7),3,5,9,11-hexaene]: the IC50 in series [2] is not above 0.5 µM; in series [3] it was not above 0.5 µM; in series [4], not above 0.5 µM; in series [5], 0.5 to 1 µM.
